± gives the expanded uncertainty stated by the source.
What was measured:
[1] = Liquid; for mass density: 298.15 K, 101.33 kPa, Vibrating tube method; for vapor or sublimation pressure: Ebulliometric method (Recirculating still)
[2] = refractive index (Na D-line) (dimensionless); conditions: 298.15 K; 101.33 kPa; Liquid; Standard Abbe refractometry

Row | mass density [1] [kg/m3] | vapor or sublimation pressure ([1]; 399.6 K) [kPa] | refractive index [2] | vapor or sublimation pressure ([1]; 362.5 K) [kPa] | vapor or sublimation pressure ([1]; 337.5 K) [kPa] | vapor or sublimation pressure ([1]; 330.2 K) [kPa] | vapor or sublimation pressure ([1]; 421.6 K) [kPa] | vapor or sublimation pressure ([1]; 373.8 K) [kPa] | Structure (SMILES)
1 | 969.4 ± 0.2 | 100.17 ± 2 | 1.3821 ± 0.0004 |  |  |  |  |  | CCOC(=O)OCC [diethyl carbonate]
2 | 1062.7 ± 0.2 |  | 1.3664 ± 0.0004 | 100.17 ± 2 |  |  |  |  | COC(=O)OC [dimethyl carbonate]
3 | 787.7 ± 0.2 |  | 1.3275 ± 0.0004 |  | 100.17 ± 2 |  |  |  | CO [methanol]
4 | 927.4 ± 0.2 |  | 1.3587 ± 0.0004 |  |  | 100.17 ± 2 |  |  | COC(C)=O [methyl ethanoate]
5 | 872.3 ± 0.2 |  | 1.3999 ± 0.0004 |  |  |  | 100.17 ± 2 |  | CCCCCOC(C)=O [pentyl ethanoate]
6 | 882.9 ± 0.2 |  | 1.3815 ± 0.0004 |  |  |  |  | 100.17 ± 2 | CCCOC(C)=O [propyl ethanoate]
